# What was measured:
# [1] = tested on: human telomeric (F21T) G-quadruplex DNA; experiment: FRET quadruplex stabilisation assay, F21T; assay type: binding; details: compound at 1 μM, 60 mM potassium cacodylate buffer pH 7.4
# Text: (§1) The ability of the naphthalene diimide compounds to stabilize quadruplex DNA sequences was investigated using a fluorescence resonance energy transfer (FRET) assay modified to be used as a high-throughput screen in a 96-well format. Several quadruplex sequences were studied (including the human telomeric G-quadruplex DNA sequence 5′-FAM-d(GGG[TTAGGG]3)-TAMRA-3′ and the duplex sequence 5′-FAM-d[…]-HEG-[…]-TAMRA-3′ (HEG linker: [(—CH2—CH2—O—)6.
# (§2) The labelled oligonucleotides have attached to them the donor fluorophore FAM: 6-carboxyfluorescein and the acceptor fluorophore TAMRA: 6-carboxytetramethylrhodamine. The FRET probe sequences were diluted from stock to the correct concentration (400 nM) in a 60 mM potassium cacodylate buffer (pH 7.4) and then annealed by heating to 85° C. for 10 min, followed by cooling to room temperature in the heating block. The compound was stored as a 10 mM stock solution in DMSO; final solutions (at 2× concentration) were prepared using 10 mM HCl in the initial 1:10 dilution, after which 60 mM potassium cacodylate buffer (pH 7.4) was used in all subsequent steps. The maximum HCl concentration in the reaction volume (at a ligand concentration of 20 μM) is thus 200 μM, well within the range of the buffer used. Relevant controls were also performed to check for interference with the assay. 96-Well plates (MJ Research, Waltham, Mass.) were prepared by aliquoting 50 μl of the annealed DNA into each well, followed by 50 μl of the compound solutions. Measurements were made on a DNA Engine Opticon (MJ Research) with excitation at 450-495 nm and detection at 515-545 nm. Fluorescence readings were taken at intervals of 0.5° C. in the range 30-100° C., with a constant temperature being maintained for 30 s prior to each reading to ensure a stable value. Final analysis of the data was carried out using a script written in the program Origin 7.0 (OriginLab Corp., Northampton, Mass.). The advanced curve-fitting function in Origin 7.0 was used for calculation of ΔTm values. All determinations were performed in triplicate or better. Esds in ΔTm are ±0.1° C.
# MIA-PaCa2 cells = experiment: RNA-seq gene expression changes in treated MIA-PaCa2 cells; assay type: cell-based, human
# Experimental: Cell lines were purchased from American Type Culture Collection (ATCC) and stored under liquid nitrogen. Cells were maintained in monolayer culture T75 (75 cm2 flasks) in humidified 5% CO2 atmosphere at 37° C. Cells were maintained in appropriate medium according to (ATCC) with necessary supplements including L-glutamine (Thermo Fisher Scientific Cat. No. 25030024), penicillin-streptomycin solution Hybrid-Max (Sigma Cat. No. P7539) and fetal bovine serum (FBS, Thermo Fisher Scientific Cat. No. 10270106). Cells were passaged at 80-90% confluence.
# MIA-PaCa2 cells were seeded 48 hours prior to incubation, in MatTek 35 mm glass bottom dishes. Three incubation times for the compound 4c were examined: 0, 6 and 24 hrs. For RNA extraction cells (a maximum of 1×10^7 cells) were harvested by trypsinization following rinsing the cells twice in 1×PBS (without calcium chloride and magnesium chloride, purchased from Sigma Cat. No. D1408). After neutralising the medium with an equal volume of medium to trypsin cells were transferred to a sterile centrifuge tube for centrifugation for 4 minutes at 400 rpm at room temperate in order to pellet the cells. After removing the medium and trypsin following centrifugation RNA was extracted from the pellet of cells using the RNeasy Mini Kit by QIAGEN (Cat. no. 74104). RNA quality was checked by use of the NanoDrop 2000 Spectrophotometer, and a minimum quantity of ca 500 ng of RNA at >25 ng/μl concentration per replicate was verified.
# RNA-Seq sequencing studies were performed by the UCL Genomics Facility using an Illumina NextSeq 500 instrument, and data obtained on RNA expression levels of all individual genes in the genomes of the cells analysed, relative to the control cells at 0 hr exposure. Four replicates were used for each time-point, thus a total of 12 individual genomes were analysed and statistics obtained for each time-point.
# Data has been taken from RNA-seq data from treated MIA-PaCa2 cells, showing log-fold expression changes for genes selected from those showing the most significant down-regulation of expression as measured by RNA levels.
# [2] = tested on: Bcl-2 sequence from the promoter region of the bcl-2 gene; experiment: FRET quadruplex stabilisation assay, Bcl-2; assay type: binding; details: compound at 1 μM, 60 mM potassium cacodylate buffer pH 7.4
# Text: as §1, §2
structure (smiles),measurement,setting,value
"O=C1c2ccc3c4c(c(NCCN5CCCC5)cc(c24)C(=O)N1CCCN1CCOCC1)C(=O)N(CCCN1CCOCC1)C3=O [Compound 4c, 2,7-bis(3-morpholinopropyl)-4-((2-(pyrrolidin-1-yl)ethyl)amino)benzo[Imn][3,8]phenanthroline-1,3,6,8(2H,7H)-tetraone]",ΔTm F21T,[1],11.8 °C
same,AVIL log-fold change relative to t = 0 hrs,MIA-PaCa2 cells; 4c at 6 hrs,3.0
same,CBFA2T3 log-fold change relative to t = 0 hrs,MIA-PaCa2 cells; 4c at 6 hrs,−2.8
same,FLG log-fold change relative to t = 0 hrs,MIA-PaCa2 cells; 4c at 6 hrs,4.0
same,ITGA1 log-fold change relative to t = 0 hrs,MIA-PaCa2 cells; 4c at 6 hrs,4.5
same,ITGAM log-fold change relative to t = 0 hrs,MIA-PaCa2 cells; 4c at 6 hrs,7.0
same,PRDM16 log-fold change relative to t = 0 hrs,MIA-PaCa2 cells; 4c at 6 hrs,−2.8
same,SHANK2 log-fold change relative to t = 0 hrs,MIA-PaCa2 cells; 4c at 6 hrs,−1.9
same,ST14 log-fold change relative to t = 0 hrs,MIA-PaCa2 cells; 4c at 6 hrs,5.6
same,TP73 log-fold change relative to t = 0 hrs,MIA-PaCa2 cells; 4c at 6 hrs,−2.4
same,TREX1 log-fold change relative to t = 0 hrs,MIA-PaCa2 cells; 4c at 6 hrs,−8.3
same,ZNF469 log-fold change relative to t = 0 hrs,MIA-PaCa2 cells; 4c at 6 hrs,−3.4
same,AVIL log-fold change relative to t = 0 hrs,MIA-PaCa2 cells; 4c at 24 hrs,0.5
same,CBFA2T3 log-fold change relative to t = 0 hrs,MIA-PaCa2 cells; 4c at 24 hrs,−2.8
same,FLG log-fold change relative to t = 0 hrs,MIA-PaCa2 cells; 4c at 24 hrs,0.7
same,ITGA1 log-fold change relative to t = 0 hrs,MIA-PaCa2 cells; 4c at 24 hrs,0.4
same,ITGAM log-fold change relative to t = 0 hrs,MIA-PaCa2 cells; 4c at 24 hrs,2.6
same,PRDM16 log-fold change relative to t = 0 hrs,MIA-PaCa2 cells; 4c at 24 hrs,−3.5
same,SHANK2 log-fold change relative to t = 0 hrs,MIA-PaCa2 cells; 4c at 24 hrs,−2.0
same,ST14 log-fold change relative to t = 0 hrs,MIA-PaCa2 cells; 4c at 24 hrs,2.5
same,TP73 log-fold change relative to t = 0 hrs,MIA-PaCa2 cells; 4c at 24 hrs,−1.2
same,TREX1 log-fold change relative to t = 0 hrs,MIA-PaCa2 cells; 4c at 24 hrs,−2.5
same,ZNF469 log-fold change relative to t = 0 hrs,MIA-PaCa2 cells; 4c at 24 hrs,−3.2
same,extent of gene expression changes,MIA-PaCa2 cells; treated MIA-PaCa2 cells,changes in gene expression in a comparatively small number of genes
same,ΔTm Bcl-2,[2],13.3 °C
